Source: PMC9127750, “Structure-based design of CDC42 effector interaction inhibitors for the treatment of cancer” (Cell reports, 2022)
Several values for one entry are separate records, joined by “and”; a condition that tells them apart may be missing. Equal values may be shown once.

System: WM3248 melanoma cells, 486 antibodies
Experiment: Reverse phase protein arrays (RPPA)
Format: cell-based, Human
Source text: Pellets were snap frozen in liquid nitrogen and shipped to MD Anderson Cancer Center core RPPA facility for RPPA analysis (Table S5). Three biological replicates for each sample were generated.
Nomenclatures on the RPPA heatmaps: name_of_antibody.species_of_antibody.status_of_antibody. V - antibody validated; C - validation of antibody in progress; Q - antibody nonspecific; E – under evaluation; antibodies raised in M - mouse, G - goat, R - rabbit, or T - rat.

[1] = 20, replicates 1-3, normalized to 0
[2] = Norm_5: replicates 1-3 and Average, relative to 0

## CN(C)c1cccc(Nc2cc(-c3ccccc3)nc(C3CCNCC3)n2)c1 [ARN22089, N1,N1-dimethyl-N3-(6-phenyl-2-(piperidin-4-yl)pyrimidin-4-yl)benzene-1,3-diamine]
20, average, normalized to 0
  HER2.M.V Norm_20 Average: 0.995
  HER2_pY1248.R.V Norm_20 Average: 1.030
  HER3.R.V Norm_20 Average: 0.904
  HER3_pY1289.R.C Norm_20 Average: 1.084
  Heregulin.R.V Norm_20 Average: 1.046
  eEF2.R.C Norm_20 Average: 1.639
  eEF2K.R.V Norm_20 Average: 1.409
  eIF4E.R.V Norm_20 Average: 1.114
  eIF4G.R.C Norm_20 Average: 1.165
[1]
  DNMT1.R.V Norm_20: 0.937 and 0.801
  DRP1.R.V Norm_20: 1.019 and 0.894 and 0.979
  DUSP4.R.V Norm_20: 0.537 and 0.626 and 1.006
  DUSP6.R.C Norm_20: 1.405 and 1.064 and 2.195
  DYRK1B.R.C Norm_20: 0.868 and 0.959 and 0.907
  Dvl3.R.V Norm_20: 0.990 and 1.118 and 0.985
  E2F1.R.V Norm_20: 1.446 and 1.251
  E.Cadherin.R.V Norm_20: 0.696 and 0.873 and 0.994
  EGFR.R.V Norm_20: 1.083 and 1.189 and 1.125
  EGFR_pY1068.R.C Norm_20: 0.892 and 0.889 and 0.961
  EGFR_pY1173.R.V Norm_20: 1.079 and 1.019 and 1.046
  EMA.M.C Norm_20: 0.566 and 0.868 and 0.914
  ENY2.M.C Norm_20: 0.866 and 0.944 and 1.047
  ER.a.R.V Norm_20: 0.939 and 0.862 and 1.078
  ER.a_pS118.R.V Norm_20: 1.167 and 1.838 and 0.928
  ERCC1.R.C Norm_20: 0.964 and 0.974
  ERCC5.R.C Norm_20: 1.290 and 0.989 and 1.051
  ERRalpha.R.V Norm_20: 0.831 and 1.056 and 1.002
  EVI1.R.V Norm_20: 0.975 and 0.917
  Enolase.1.R.V Norm_20: 1.030 and 1.152
  Enolase.2.R.V Norm_20: 0.990 and 0.970 and 0.883
  EphA2.R.V Norm_20: 0.706 and 0.773 and 0.765
  EphA2_pS897.R.C Norm_20: 0.536 and 0.635 and 0.720
  EphA2_pY588.R.C Norm_20: 0.930 and 1.018 and 0.973
  Erk5.R.V Norm_20: 0.948 and 0.789 and 1.013
  Ets.1.R.V Norm_20: 1.373 and 1.347 and 1.417
  FABP5.R.C Norm_20: 1.102 and 1.223 and 1.428
  FAK.R.C Norm_20: 0.837 and 0.917
  FAK_pY397.R.V Norm_20: 0.847 and 0.989 and 0.940
  FANCD2.R.V Norm_20: 0.831 and 0.901 and 0.823
  FASN.R.V Norm_20: 0.802 and 0.983
  FGF.basic.R.C Norm_20: 0.939 and 0.836 and 1.240
  FN14.R.C Norm_20: 1.082 and 0.902 and 1.335
  FOXM1.R.V Norm_20: 0.995 and 0.889 and 0.924
  FOXO3.R.V Norm_20: 1.160 and 1.151 and 0.915
  FRS2.alpha_pY196.R.V Norm_20: 0.925 and 1.195 and 1.058
  FTO.R.V Norm_20: 0.992
  Fibronectin.R.V Norm_20: 1.153 and 1.290 and 1.137
  FoxO3a_pS318_S321.R.C Norm_20: 1.105 and 0.940
  G6PD.R.V Norm_20: 0.877 and 1.061 and 0.923
  GATA3.M.V Norm_20: 1.203 and 1.452 and 1.301
  GATA6.R.V Norm_20: 0.945 and 0.991 and 0.928
  GCLC.R.C Norm_20: 0.882 and 0.967 and 1.220
  GCLM.R.V Norm_20: 0.988 and 1.024 and 0.965
  GCN5L2.R.V Norm_20: 0.974 and 0.944
  GGPS1.M.V Norm_20: 0.920 and 0.992 and 1.155
  GRB2.R.V Norm_20: 0.992 and 0.862 and 0.948
  GRB7.R.V Norm_20: 0.909 and 0.898
  GSK.3B.R.C Norm_20: 0.896 and 0.924
  GSK.3a.b.M.V Norm_20: 0.918 and 0.992
  GSK.3a.b_pS21_S9.R.V Norm_20: 1.411 and 1.207
  Gab2.R.V Norm_20: 1.447 and 1.019
  Gli1.R.C Norm_20: 0.898 and 0.922 and 1.028
  Gli3.R.C Norm_20: 1.237 and 1.346 and 1.321
  Glucocorticoid.Receptor.R.V Norm_20: 1.227 and 1.295 and 0.987
  Glutamate.D1.2.R.V Norm_20: 1.198
  Glutaminase.R.C Norm_20: 1.026 and 1.144 and 1.364
  Granzyme.B.R.V Norm_20: 1.284 and 1.028
  Grp75.R.C Norm_20: 1.594 and 1.052 and 0.939
  Gys.R.V Norm_20: 0.807 and 0.941 and 1.104
  Gys_pS641.R.V Norm_20: 0.671 and 0.818 and 1.079
  H2AX_pS139.R.C Norm_20: 1.188 and 2.081 and 1.030
  H2AX_pS140.M.C Norm_20: 1.001 and 1.667 and 1.028
  HER2.M.V Norm_20: 0.977 and 0.952 and 1.056
  HER2_pY1248.R.V Norm_20: 0.902 and 1.119
  HER3.R.V Norm_20: 0.864 and 0.935 and 0.913
  HER3_pY1289.R.C Norm_20: 1.059 and 1.124
  HES1.R.V Norm_20: 1.224 and 0.849 and 1.063
  Heregulin.R.V Norm_20: 1.048 and 1.050
  eEF2.R.C Norm_20: 1.328 and 1.602 and 1.986
  eEF2K.R.V Norm_20: 1.469 and 1.590 and 1.169
  eIF4E.R.V Norm_20: 1.107 and 0.843 and 1.392
  eIF4E_pS209.R.V Norm_20: 0.954 and 0.835 and 1.321
  eIF4G.R.C Norm_20: 1.493 and 1.003 and 0.999
Norm_5, normalized to Norm_0
  MYH11.R.C Average: 1.033
  Myosin.IIa.R.C Average: 0.991
  Myosin.IIa_pS1943.R.V Average: 0.992
  Myt1.R.C Average: 1.030
  N.Cadherin.R.V Average: 0.967
  N.Ras.M.V Average: 0.979
  NDRG1_pT346.R.V Average: 1.270
  NDUFB4.R.V Average: 0.954
  NRF2.R.C Average: 1.024
  Notch1.R.V Average: 0.893
  Notch1.cleaved.R.V Average: 1.048
  Notch3.R.C Average: 0.987
  Oct.4.R.C Average: 1.097
  P.Cadherin.R.C Average: 1.185
  PAI.1.M.V Average: 0.899
  PAICS.R.C Average: 0.934
  PAK1.R.V Average: 0.952
  PAK4.R.V Average: 0.942
  PAK_pS474_S602_S560.R.V Average: 0.943
  PAK_pT423_T402.R.C Average: 0.942
  PAR.R.C Average: 2.806
  PARG.R.C Average: 1.053
  PAX6.R.V Average: 0.980
  PAX8.R.C Average: 0.929
  PCNA.M.C Average: 0.930
  PD.1.R.V Average: 0.933
  PD.L1.R.C Average: 1.049
  PDH.M.V Average: 0.971
  PDHA1.R.V Average: 1.000
  PDHK1.R.C Average: 1.047
  PDK1.R.V Average: 1.053
  PDK1_pS241.R.V Average: 1.123
  PEA.15.R.V Average: 0.989
  PEA.15_pS116.R.V Average: 0.945
  PERK.R.V Average: 0.967
  PGM1.R.V Average: 1.019
  PHLPP.R.V Average: 1.011
  PI3K.p85.R.C Average: 0.931
  PI3K.p110.a.R.C Average: 1.007
  PI3K.p110.b.M.C Average: 0.980
  PKA.a.R.V Average: 1.083
  PKC.a.b.II_pT638_T641.R.V Average: 0.910
  PKC.b.II_pS660.R.V Average: 1.083
  PKCa.R.V Average: 1.160
  PLC.gamma1.R.V Average: 1.065
  PLC.gamma1_pS1248.R.V Average: 1.197
  PLC.gamma2_pY759.R.V Average: 0.941
  PLK1.R.C Average: 0.892
  PMS2.R.V Average: 0.916
  PR.R.V Average: 0.959
  PRAS40.M.C Average: 0.988
  PRC1_pT481.R.C Average: 0.915
  Patched.R.C Average: 1.046
  Paxillin.R.C Average: 1.013
  Pdcd4.R.C Average: 1.126
  Porin.M.V Average: 0.959
  p21.R.C Average: 0.958
  p27.Kip1.R.C Average: 0.986
  p27_pT157.R.C Average: 1.081
  p27_pT198.R.V Average: 1.051
  p38.MAPK._pT180_Y182.R.V Average: 1.202
  p38.a.M.V Average: 0.984
  p44.42.MAPK.R.V Average: 1.160
  p53.R.C Average: 1.083
  p70.S6K1.R.V Average: 1.109
  p90RSK_pT573.R.C Average: 0.871
[2]
  PREX1.R.V normalized RPPA signal: 1.167 and 1.060 and 1.135 and 1.121
  PTEN.R.V normalized RPPA signal: 1.061 and 1.012 and 1.047
  PTPN12.R.V normalized RPPA signal: 1.010 and 0.988 and 1.023
  PYGB.R.V normalized RPPA signal: 1.017 and 1.164 and 0.766 and 0.982
  PYGM.M.C normalized RPPA signal: 0.997 and 1.153 and 0.846 and 0.999
  Puma.R.C normalized RPPA signal: 1.064 and 1.136 and 0.836 and 1.012
  Pyk2_pY402.R.C normalized RPPA signal: 1.133 and 1.024 and 1.065
  RBM15.R.V normalized RPPA signal: 0.984 and 1.128
  RIP3.R.C normalized RPPA signal: 1.061 and 1.027 and 1.055 and 1.048
  RIP.R.C normalized RPPA signal: 0.916 and 0.977 and 0.799 and 0.897
  RPA32.R.V normalized RPPA signal: 1.150 and 0.846 and 1.011
  RPA32_pS4_S8.R.C normalized RPPA signal: 1.171 and 1.234 and 0.878
  RRM1.R.C normalized RPPA signal: 0.936 and 0.952 and 0.975
  RRM2.R.C normalized RPPA signal: 0.907 and 1.001 and 0.922 and 0.943
